From patent US4425356A, “Lankacidin derivatives used in swine husbandry” (Takeda Chemical Industries, Ltd., priority 1980, dated 1984)
Values after ≈ are worked out from the molar mass of the structure shown. Like-named read-outs stand apart in the source and are kept apart here.

Columns and labels:
Treponema hyodysenteriae [1] = assay: in vitro antibacterial activity (MIC, agar dilution method), Test Examples 1-3; assay type: cell-based; conditions: for MIC: Brachyspira hyodysenteriae, 48 h; for MIC / Minimum Inhibitory Concentration: 37° C., 2 days, anaerobic
Protocol: Several agents were tested for in vitro antibacterial activity against Treponema hyodysenteriae, the pathogenic bacteria causing swine dysentery, by the method of testing drug sensitivity of Treponema hyodysenteriae (Kashiwazaki et al. Abstracts of Papers presented at the 82nd Meeting of the Japanese Society of Veterinary Science, page 101, 1976).
(1) Strains: These strains belong to Treponema hyodysenteriae isolated
from the bloody mucous faeces of dysenteric pigs in Japan.
(2) Antimicrobial activity assay: Agar dilution method
(3) Inoculum size: A loopful of bacterial suspension (10^6 CFU/ml)
(4) Cultural conditions: GasPak anaerobic system (BBL), 37° C., 2
Typical agents among compound (I) were tested for in vitro antibacterial activity by the same method as in Test Example 1.
The experimental conditions are the same as in Test Example 1 (Table 1).
Agents of compound (I) were tested for in vitro antibacterial activity by the same method as in Test Example 1.

[2] = acute toxicity tests with mice; conditions: mouse, in vivo
Text: The toxicity of compound (I) in animals is very low.

Treponema hyodysenteriae [3] = assay: efficacy in experimental infection in mice with swine dysentery, Test Example 4; assay type: in vivo; conditions: 5 mg/kg/day oral, day 1 to day 4; seven days after infection
Protocol: Lankacidin A, lankacidin C, lankacidin C 8-acetate, lankacidin C 14-propionate, lankacidinol A and lankacidinol were tested for efficacy against swine dysentery in experimental infection in mice with swine dysentery.
The similar experimental infection model of swine dysentery in mice as that described, for example, by Joens et al. in Infection and Immunity, 25, 757-760 (1979), American Journal of Veterinary Research, 41, 1225-1226 (1980) and Veterinary Record, 107, 527-529 (1980) was used. Thus, a field isolate of Treponema hyodysenteriae anaerobically cultivated on the 5% defibrinated horse blood added Trypticase soy agar (BBL) plate was mashed together with the culture medium and diluted two-fold with Trypticase soy broth (BBL). Mice were inoculated intragastrically with this infecting dilution. Each test agent was suspended in 5% gum arabic solution and forcibly administered orally from day 1 to day 4 following infection. Seven days after infection, the cecum was examined for lesions, and the cecum was mashed together with the contents and subjected to Treponema hyodysenteriae counting. Excellent efficacy was produced in each of the drug-administered groups.

[4] = growth of pigs, 5-month continuous dietary administration, Test Examples 10-11; assay type: in vivo, Landrace pigs; conditions: for Body weight at end / Body weight at feed exchange / Body weight gain for starter feed period / Body weight gain for whole period / Feed conversion for starter feed period / Feed conversion for whole period / Feed intake for starter feed period / Feed intake for whole period: mean per head; for growth and feed efficiency (in words): dietary, 5 months
Protocol: Effects of compound (I) on the growth of pigs under the conditions in which swine dysentery was absent were examined. Thus, 40 one-month-old Landrace pigs (5 litters) were used in groups each consisting of 8 (4 males and 4 females). Lankacidin C was added in concentrations of 0 (control), 1, 2.5, 5 and 10 ppm to antibacterial agent-free starter feed for the period from the start of the test through the age of 3 months and to the feed for testing pigs for performance of meat production (also free of antibacterial agents) for the period from the age of 4 months to the age of 6 months (end). Thus, in each group, dietary lankacidin C was administered continuously for 5 months.
The data are each the mean value per head. Different alphabetic letters o
Fourty-eight 35-day-old Landrace pigs (6 litters) were used in 6 groups each consisting of 8 (4 males and 4 females). Lankacidin A was added in concentrations of 0 (control), 1, 2.5, 5, 10 and 20 ppm to antibacterial agent-free starter feed for the period from the start of the test through the age of 3 months and to the feed for testing pigs for performance of meat production (also free of antibacterial agents) for the period from the age of 4 months to the age of 6 months (end).

[5] = ip, intraperitoneal, read-out: intraperitoneal LD50

CC(=O)C(=O)NC1C=C(C)C=CC(O)CC=C(C)C=CC(O)CC2OC(=O)C1(C)C(=O)C2C (stereo not drawn) [Lankacidin C, lankacidin C]
MIC (Treponema hyodysenteriae [1]; read-out: Minimum Inhibitory Concentration, strain DJ70P1): 3.13 µg/mL (≈ 6.81 µM)
in vitro antibacterial activity (in words) (Treponema hyodysenteriae [1]; against Treponema hyodysenteriae): strong antibacterial activity
LD50 [2, 5]: 4500 mg/kg
LD50 ([2]; oral, read-out: oral LD50): > 10000 mg/kg
Number of mice from which the pathogen was detected/number of mice tested (Treponema hyodysenteriae [3]): 1/5
Number of mice with cecal lesions/number of mice tested (Treponema hyodysenteriae [3]): 0/5
Body weight at end ([4]; 1 ppm in feed): 102.4 kg
Body weight at feed exchange ([4]; 1 ppm in feed): 32.7 kg
Body weight gain for starter feed period ([4]; 1 ppm in feed): 25.4 kg
Body weight gain for whole period ([4]; 1 ppm in feed): 95.0 kg
Feed conversion for starter feed period ([4]; 1 ppm in feed): 1.95
Feed conversion for whole period ([4]; 1 ppm in feed): 2.90
Feed intake for starter feed period ([4]; 1 ppm in feed): 49.4 kg
Feed intake for whole period ([4]; 1 ppm in feed): 275.6 kg
Body weight at end ([4]; 2.5 ppm in feed): 104.6 kg
Body weight at feed exchange ([4]; 2.5 ppm in feed): 34.2 kg
Body weight gain for starter feed period ([4]; 2.5 ppm in feed): 26.9 kg
Body weight gain for whole period ([4]; 2.5 ppm in feed): 97.2 kg
Feed conversion for starter feed period ([4]; 2.5 ppm in feed): 1.83
Feed conversion for whole period ([4]; 2.5 ppm in feed): 2.86
Feed intake for starter feed period ([4]; 2.5 ppm in feed): 49.1 kg
Feed intake for whole period ([4]; 2.5 ppm in feed): 278.0 kg
Body weight at end ([4]; 5 ppm in feed): 109.0 kg
Body weight at feed exchange ([4]; 5 ppm in feed): 36.9 kg
Body weight gain for starter feed period ([4]; 5 ppm in feed): 29.5 kg
Body weight gain for whole period ([4]; 5 ppm in feed): 101.7 kg
Feed conversion for starter feed period ([4]; 5 ppm in feed): 1.72
Feed conversion for whole period ([4]; 5 ppm in feed): 2.80
Feed intake for starter feed period ([4]; 5 ppm in feed): 50.7 kg
Feed intake for whole period ([4]; 5 ppm in feed): 284.6 kg
Body weight at end ([4]; 10 ppm in feed): 110.2 kg
Body weight at feed exchange ([4]; 10 ppm in feed): 37.5 kg
Body weight gain for starter feed period ([4]; 10 ppm in feed): 30.1 kg
Body weight gain for whole period ([4]; 10 ppm in feed): 102.8 kg
Feed conversion for starter feed period ([4]; 10 ppm in feed): 1.70
Feed conversion for whole period ([4]; 10 ppm in feed): 2.77
Feed intake for starter feed period ([4]; 10 ppm in feed): 51.2 kg
Feed intake for whole period ([4]; 10 ppm in feed): 284.8 kg
growth and feed efficiency (in words) [4]: growth of pigs was increased in a manner almost proportional to the level of addition of lankacidin C, and accordingly the feed efficiency was improved

CC(=O)OC1C=CC(C)=CCC(O)C=CC(C)=CC(NC(=O)C(C)=O)C2(C)C(=O)OC(C1)C(C)C2=O (stereo not drawn) [Lankacidin A, lankacidin A]
MIC (Treponema hyodysenteriae [1]; strain 78/A, read-out: Minimum Inhibitory Concentration): 3.13 µg/mL (≈ 6.24 µM)
MIC (Treponema hyodysenteriae [1]; strain CD1 (CD-1), read-out: Minimum Inhibitory Concentration): 6.25 µg/mL (≈ 12.5 µM)
MIC (Treponema hyodysenteriae [1]; strain DJ70P1, read-out: Minimum Inhibitory Concentration): 6.25 µg/mL (≈ 12.5 µM)
MIC (Treponema hyodysenteriae [1]; strain MK-2, read-out: Minimum Inhibitory Concentration): 3.13 µg/mL (≈ 6.24 µM)
Minimum Inhibitory Concentration (Treponema hyodysenteriae [1]; strain DJ70P1): 3.13 µg/mL
Minimum Inhibitory Concentration (Treponema hyodysenteriae [1]; strain MK-2): 6.25 µg/mL
LD50 [2, 5]: 8000 to 10000 mg/kg
LD50 ([2]; oral, read-out: oral LD50): > 10000 mg/kg
Number of mice from which the pathogen was detected/number of mice tested (Treponema hyodysenteriae [3]): 1/5
Number of mice with cecal lesions/number of mice tested (Treponema hyodysenteriae [3]): 0/5
Body weight at end ([4]; 1 ppm in feed): 111.6 kg
Body weight at feed exchange ([4]; 1 ppm in feed): 34.0 kg
Body weight gain for starter feed period ([4]; 1 ppm in feed): 24.8 kg
Body weight gain for whole period ([4]; 1 ppm in feed): 102.4 kg
Feed conversion for starter feed period ([4]; 1 ppm in feed): 1.94
Feed conversion for whole period ([4]; 1 ppm in feed): 2.88
Feed intake for starter feed period ([4]; 1 ppm in feed): 48.1 kg
Feed intake for whole period ([4]; 1 ppm in feed): 294.9 kg
Body weight at end ([4]; 2.5 ppm in feed): 113.5 kg
Body weight at feed exchange ([4]; 2.5 ppm in feed): 34.6 kg
Body weight gain for starter feed period ([4]; 2.5 ppm in feed): 25.4 kg
Body weight gain for whole period ([4]; 2.5 ppm in feed): 104.4 kg
Feed conversion for starter feed period ([4]; 2.5 ppm in feed): 1.87
Feed conversion for whole period ([4]; 2.5 ppm in feed): 2.83
Feed intake for starter feed period ([4]; 2.5 ppm in feed): 47.6 kg
Feed intake for whole period ([4]; 2.5 ppm in feed): 295.3 kg
Body weight at end ([4]; 5 ppm in feed): 118.3 kg
Body weight at feed exchange ([4]; 5 ppm in feed): 36.1 kg
Body weight gain for starter feed period ([4]; 5 ppm in feed): 26.9 kg
Body weight gain for whole period ([4]; 5 ppm in feed): 109.1 kg
Feed conversion for starter feed period ([4]; 5 ppm in feed): 1.77
Feed conversion for whole period ([4]; 5 ppm in feed): 2.79
Feed intake for starter feed period ([4]; 5 ppm in feed): 47.6 kg
Feed intake for whole period ([4]; 5 ppm in feed): 304.3 kg
Body weight at end ([4]; 10 ppm in feed): 120.5 kg
Body weight at feed exchange ([4]; 10 ppm in feed): 36.7 kg
Body weight gain for starter feed period ([4]; 10 ppm in feed): 27.6 kg
Body weight gain for whole period ([4]; 10 ppm in feed): 111.4 kg
Feed conversion for starter feed period ([4]; 10 ppm in feed): 1.73
Feed conversion for whole period ([4]; 10 ppm in feed): 2.74
Feed intake for starter feed period ([4]; 10 ppm in feed): 47.7 kg
Feed intake for whole period ([4]; 10 ppm in feed): 305.2 kg
Body weight at end ([4]; 20 ppm in feed): 123.4 kg
Body weight at feed exchange ([4]; 20 ppm in feed): 37.4 kg
Body weight gain for starter feed period ([4]; 20 ppm in feed): 28.8 kg
Body weight gain for whole period ([4]; 20 ppm in feed): 114.2 kg
Feed conversion for starter feed period ([4]; 20 ppm in feed): 1.71
Feed conversion for whole period ([4]; 20 ppm in feed): 2.72
Feed intake for starter feed period ([4]; 20 ppm in feed): 48.2 kg
Feed intake for whole period ([4]; 20 ppm in feed): 310.6 kg
growth and feed efficiency (in words) [4]: Swine growth was promoted proportionally to the increase of level of addition of lankacidin A, and the feed efficiency was improved accordingly
